Test results from patent publication US9199993B2, “8-azabicyclo[3.2.1]octyl-2-hydroxybenzamide compounds as mu opioid receptor antagonists” (THERAVANCE BIOPHARMA R&D IP, LLC, priority 2007, dated 2015).
Read-outs that look alike come from different tables or passages of the source.

Tests used:
[1] = target: T1, human mu opioid receptor (Homo sapiens, UniProt P35372); test: Radioligand binding assay on human mu opioid receptor
T1 construct: host or cells: CHO-K1

[2] = test system: loperamide-induced delayed gastric emptying; test: Rat gastric emptying assay (reversal of loperamide-induced delayed gastric emptying); format: in vivo; conditions: administered orally, loperamide 1 mg/kg s.c., gastric emptying model
[3] = target: T1, human mu opioid receptor; test: biochemical; conditions: read-out: intrinsic activity (IA), bound [35S]GTPγS relative to DAMGO (IA=100)

T1 sequence (P35372 whole entry): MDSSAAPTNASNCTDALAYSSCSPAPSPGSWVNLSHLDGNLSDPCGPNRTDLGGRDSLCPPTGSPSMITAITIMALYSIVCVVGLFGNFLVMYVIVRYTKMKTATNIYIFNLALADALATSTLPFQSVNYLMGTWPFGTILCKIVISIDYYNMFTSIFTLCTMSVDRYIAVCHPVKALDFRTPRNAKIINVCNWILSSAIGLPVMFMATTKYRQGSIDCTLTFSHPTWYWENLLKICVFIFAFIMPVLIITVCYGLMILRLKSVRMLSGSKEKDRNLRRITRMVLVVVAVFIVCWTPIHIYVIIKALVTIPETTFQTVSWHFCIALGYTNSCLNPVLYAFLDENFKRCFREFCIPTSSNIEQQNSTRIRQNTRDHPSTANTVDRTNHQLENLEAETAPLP

Row | Structure (SMILES) | Ki ([1]; displacement of [3H]-Diprenorphine 0.5 nM, CHO-K1 cell membranes, read-out: pKi at the human mu opioid receptor (converted)) | ID50, dose required for 50% reversal of the effects of loperamide [2] | Emax [3] | Ki [1]
1 | CCC(CC)CN(CCN1[C@@H]2CC[C@H]1C[C@@H](c1cccc(C(N)=O)c1O)C2)C(=O)CO [Example 2, 3-endo-(8-2-[(2-Ethylbutyl)-(2-hydroxyacetyl)amino]-ethyl-8-azabicyclo[3.2.1]oct-3-yl)-2-hydroxybenzamide] | 0.1 nM | – | – | –
2 | NC(=O)c1cccc(C2CC3CCC(C2)N3CCN(CC2CCC(F)(F)CC2)C(=O)CO)c1O (stereo not drawn) [Example 4, 3-endo-(8-2-[(4,4-Difluorocyclohexylmethyl)-(2-hydroxyacetyl)-amino]ethyl-8-azabicyclo[3.2.1]oct-3-yl)-2-hydroxybenzamide] | – | 0.014 mg/kg | – | –
3 | CC(C)(C)CN(CCN1[C@@H]2CC[C@H]1C[C@@H](c1cccc(C(N)=O)c1O)C2)C(=O)[C@@H](O)CO [Example 6, 3-endo-(8-{2-[((S)-2,3-Dihydroxypropionyl)-(2,2-dimethylpropyl)amino]ethyl}-8-azabicyclo[3.2.1]oct-3-yl)-2-hydroxybenzamide] | – | 0.42 mg/kg | 9% | 0.251 nM
4 | CCC(CC)CN(CCN1[C@@H]2CC[C@H]1C[C@@H](c1cccc(C(N)=O)c1O)C2)C(=O)[C@@H](O)CO [Example 1, 3-endo-(8-{2-[((S)-2,3-Dihydroxypropionyl)-(2-ethylbutyl)-amino]ethyl}-8-azabicyclo[3.2.1]oct-3-yl)-2-hydroxybenzamide] | – | 0.11 mg/kg | -1% | 0.1 nM
